Laboratory results: patent US20140329797A1, “SUBSTITUTED OXADIAZOLYL PYRIDINONES AND OXADIAZOLYL PYRIDAZINONES AS HIF INHIBITORS” (Bayer Intellectual Property GmbH, priority 2011, published 2014)
pIC50: −log10 of the molar value.

Test system: HCT 116 cells transfected with a luciferase reporter under the control of an HIF-responsive sequence
Test: HIF-luciferase assay
Type: cell-based
Settings: Homo sapiens; HCT 116 HIF-luciferase reporter cells, hypoxia chamber (1% O2), 24 h; in some cases means of up to four individual determinations
Protocol: B-1. HIF-Luciferase Assay
HCT 116 cells were transfected in a stable manner with a plasmid which contained a luciferase reporter under the control of an HIF-responsive sequence. These cells were sown in microtitre plates [20000 cells/cavity in RPMI 1640 medium with 10% foetal calf serum (FCS) and 100 μg/ml of hygromycin]. Incubation was carried out overnight under standard conditions (5% CO2, 21% O2, 37° C., moistened). The following morning the cells were incubated with various concentrations of the test substances (0-10 μmol/l) in a hypoxia chamber (1% O2). After 24 h, Bright Glo reagent (Promega, Wisconsin, USA) was added in accordance with the manufacturer's instructions, and after 5 min the luminescence was measured. Cells which were incubated under normoxia served as background controls.

pIC50	Structure (SMILES)
8.70	O=c1ccc(-c2nc(-c3ccc(OC(F)(F)F)cc3)no2)cn1Cc1ccnc(N2CCN(C3CC3)CC2)c1 [Example 51, 1-{[2-(4-Cyclopropylpiperazin-1-yl)pyridin-4-yl]methyl}-5-{3-[4-(trifluoromethoxy)phenyl]-1,2,4-oxadiazol-5-yl}pyridin-2(1H)-one]
8.40	O=c1ccc(-c2nc(-c3ccc(C4(C(F)(F)F)CC4)cc3)no2)cn1Cc1ccnc(N2CCN(C3CC3)CC2)c1 [Example 54, 1-{[2-(4-Cyclopropylpiperazin-1-yl)pyridin-4-yl]methyl}-5-(3-{4-[1-(trifluoromethyl)cyclopropyl]phenyl}-1,2,4-oxadiazol-5-yl)pyridin-2(1H)-one]
8.30	CC(C)(O)Cc1cccc(Cn2cc(-c3nc(-c4ccc(OC(F)(F)F)cc4)no3)ccc2=O)c1 [Example 41, 1-[3-(2-Hydroxy-2-methylpropyl)benzyl]-5-{3-[4-(trifluoromethoxy)phenyl]-1,2,4-oxadiazol-5-yl}pyridin-2(1H)-one]
8.00	O=c1ccc(-c2nc(-c3ccc(OC(F)(F)F)cc3)no2)nn1Cc1cccc(C2(CO)CC2)c1 [Example 92, 2-{3-[1-(Hydroxymethyl)cyclopropyl]benzyl}-6-{3-[4-(trifluoromethoxy)phenyl]-1,2,4-oxadiazol-5-yl}pyridazin-3(2H)-one]
7.40	CN1CCN(c2cc(Cn3cc(-c4nc(-c5ccc(SC(F)(F)F)cc5)no4)ccc3=O)ccn2)CC1 [Example 47, 1-{[2-(4-Methylpiperazin-1-yl)pyridin-4-yl]methyl}-5-(3-{4-[(trifluoromethyl)sulphanyl]phenyl}-1,2,4-oxadiazol-5-yl)pyridin-2(1H)-one]
7.52	COC(=O)c1cccc(Cn2cc(-c3nc(-c4ccc(C(C)(C)C(F)(F)F)cc4)no3)ccc2=O)c1 [Example 19, Methyl 3-{[2-oxo-5-{3-[4-(1,1,1-trifluoro-2-methylpropan-2-yl)phenyl]-1,2,4-oxadiazol-5-yl}pyridin-1(2H)-yl]methyl}benzoate]
8.52	O=C(c1cccc(Cn2cc(-c3nc(-c4ccc(OC(F)(F)F)cc4)no3)ccc2=O)c1)N1CCN(C2CC2)CC1 [Example 38, 1-{3-[(4-Cyclopropylpiperazin-1-yl)carbonyl]benzyl}-5-{3-[4-(trifluoromethoxy)phenyl]-1,2,4-oxadiazol-5-yl}pyridin-2(1H)-one]
7.90	CNc1ccc(Cn2cc(-c3nc(-c4ccc(OC(F)(F)F)cc4)no3)ccc2=O)cn1 [Example 59, 1-{[6-(Methylamino)pyridin-3-yl]methyl}-5-{3-[4-(trifluoromethoxy)phenyl]-1,2,4-oxadiazol-5-yl}pyridin-2(1H)-one]
8.30	O=c1ccc(-c2nc(-c3ccc(C4(C(F)(F)F)CC4)cc3)no2)cn1Cc1cccc(N2CC(O)C2)c1 [Example 16, 1-[3-(3-Hydroxyazetidin-1-yl)benzyl]-5-(3-{4-[1-(trifluoromethyl)cyclopropyl]phenyl}-1,2,4-oxadiazol-5-yl)pyridin-2(1H)-one]

Further lines, the compound ahead of its results:

Structure (SMILES)	pIC50
CNc1ccc(Cn2cc(-c3nc(-c4ccc(C(C)(C)C(F)(F)F)cc4)no3)ccc2=O)cn1 [Example 60, 1-{[6-(Methylamino)pyridin-3-yl]methyl}-5-{3-[4-(1,1,1-trifluoro-2-methylpropan-2-yl)phenyl]-1,2,4-oxadiazol-5-yl}pyridin-2(1H)-one]	7.70
O=C(c1cccc(Cn2cc(-c3nc(-c4ccc(OC(F)(F)F)cc4)no3)ccc2=O)c1)N1CCCC1 [Example 28, 1-[3-(Pyrrolidin-1-ylcarbonyl)benzyl]-5-{3-[4-(trifluoromethoxy)phenyl]-1,2,4-oxadiazol-5-yl}pyridin-2(1H)-one]	8.70
CC(C)(c1ccc(-c2noc(-c3ccc(=O)n(Cc4ccc(Cl)cc4)c3)n2)cc1)C(F)(F)F [Example 4, 1-(4-Chlorobenzyl)-5-{3-[4-(1,1,1-trifluoro-2-methylpropan-2-yl)phenyl]-1,2,4-oxadiazol-5-yl}pyridin-2(1H)-one]	7.30
O=C(c1cccc(Cn2nc(-c3nc(-c4ccc(OC(F)(F)F)cc4)no3)ccc2=O)c1)N1CCN(C2CC2)CC1 [Example 87, 2-{3-[(4-Cyclopropylpiperazin-1-yl)carbonyl]benzyl}-6-{3-[4-(trifluoromethoxy)phenyl]-1,2,4-oxadiazol-5-yl}pyridazin-3(2H)-one]	8.30
Cc1ccc(Cn2cc(-c3nc(-c4ccc(C(C)(C)C(F)(F)F)cc4)no3)ccc2=O)cc1 [Example 2, 1-(4-Methylbenzyl)-5-{3-[4-(1,1,1-trifluoro-2-methylpropan-2-yl)phenyl]-1,2,4-oxadiazol-5-yl}pyridin-2(1H)-one]	7.40
CC(C)(c1ccc(-c2noc(-c3ccc(=O)n(Cc4cccc(C(=O)N5CCN(C6CC6)CC5)c4)c3)n2)cc1)C(F)(F)F [Example 39, 1-{3-[(4-Cyclopropylpiperazin-1-yl)carbonyl]benzyl}-5-{3-[4-(1,1,1-trifluoro-2-methylpropan-2-yl)phenyl]-1,2,4-oxadiazol-5-yl}pyridin-2(1H)-one]	8.30
O=c1ccc(-c2nc(-c3ccc(OC(F)(F)F)cc3)no2)cn1Cc1ccnc(N2CCN(CC(F)(F)F)CC2)c1 [Example 49, 1-({2-[4-(2,2,2-Trifluoroethyl)piperazin-1-yl]pyridin-4-yl}methyl)-5-{3-[4-(trifluoromethoxy)phenyl]-1,2,4-oxadiazol-5-yl}pyridin-2(1H)-one]	8.52
O=C(c1cccc(Cn2nc(-c3nc(-c4ccc(OC(F)(F)F)cc4)no3)ccc2=O)c1)N1CCCC1 [Example 78, 2-[3-(Pyrrolidin-1-ylcarbonyl)benzyl]-6-{3-[4-(trifluoromethoxy)phenyl]-1,2,4-oxadiazol-5-yl}pyridazin-3(2H)-one]	8.30
CC(C)(O)Cc1cccc(Cn2nc(-c3nc(-c4ccc(C(C)(C)C(F)(F)F)cc4)no3)ccc2=O)c1 [Example 91, 2-[3-(2-Hydroxy-2-methylpropyl)benzyl]-6-{3-[4-(1,1,1-trifluoro-2-methylpropan-2-yl)phenyl]-1,2,4-oxadiazol-5-yl}pyridazin-3(2H)-one]	7.40
O=c1ccc(-c2nc(-c3ccc(SC(F)(F)F)cc3)no2)cn1Cc1ccnc(N2CCN(C3CC3)CC2)c1 [Example 52, 1-{[2-(4-Cyclopropylpiperazin-1-yl)pyridin-4-yl]methyl}-5-(3-{4-[(trifluoromethyl)sulphanyl]phenyl}-1,2,4-oxadiazol-5-yl)pyridin-2(1H)-one]	8.30
CC(C)(c1ccc(-c2noc(-c3ccc(=O)n(Cc4cccc(C5(CO)CC5)c4)n3)n2)cc1)C(F)(F)F [Example 93, 2-{3-[1-(Hydroxymethyl)cyclopropyl]benzyl}-6-{3-[4-(1,1,1-trifluoro-2-methylpropan-2-yl)phenyl]-1,2,4-oxadiazol-5-yl}pyridazin-3(2H)-one]	7.60
O=C(c1cccc(Cn2cc(-c3nc(-c4ccc(OC(F)(F)F)cc4)no3)ccc2=O)c1)N1CCC(O)CC1 [Example 32, 1-{3-[(4-Hydroxypiperidin-1-yl)carbonyl]benzyl}-5-{3-[4-(trifluoromethoxy)phenyl]-1,2,4-oxadiazol-5-yl}pyridin-2(1H)-one]	8.70
O=C(c1cccc(Cn2nc(-c3nc(-c4ccc(OC(F)(F)F)cc4)no3)ccc2=O)c1)N1CCC(O)CC1 [Example 82, 2-{3-[(4-Hydroxypiperidin-1-yl)carbonyl]benzyl}-6-{3-[4-(trifluoromethoxy)phenyl]-1,2,4-oxadiazol-5-yl}pyridazin-3(2H)-one]	7.82
